In this assay the target is T1, human amylin (Homo sapiens, UniProt P10997).
T1 sequence (P10997 34-70 limits assumed): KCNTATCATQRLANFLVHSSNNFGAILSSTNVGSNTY
Put plainly: Circular dichroism assay of amylin conformation. To be noted: for conformation of human amylin (circular dichroism): approximately 4 μM human amylin, 4% HFIP (FIG. 9E). The assay is classed as biochemical. The arrangement: Amylin is a 37-residue; C-terminally amidated peptide having a disulfide bridge between the cysteines at residues 2 and 7; purchased Bachem Calif; (Torrance, Calif.); host or cells: chemical synthesis. On the procedure:
Preparation of monomeric human amylin. Human amylin (batch 0551805) was obtained from Bachem (Torrence, Calif.). Stock solutions of amylin were prepared as described by Padrick and Miranker, 2002. Human amylin was solubilised in 6M guanidine HCL/50 mM potassium phosphate, pH 6.0, and loaded onto a C18 reversed-phase spin column (Harvard Biosciences). The column was then washed sequentially with 10% Acetonitrile, 0.2% trifluoroacetic acid and water. Monomeric amylin was eluted in 100% HFIP (hexafluoroisopropanol). This stock solution of amylin was then used for all Circular Dichroism experiments.
Circular Dichroism Assay. Circular dichroism spectra were measured on a Pi-Star 180 spectrometer (Applied Photophysics, Leatherhead, UK). Measurements were carried out in either 100% HFIP or 100 mM potassium chloride/50 mM potassium phosphate buffer (pH 7.4) and 2.5% HFIP at 25° C. A stock solution of monomeric human amylin was diluted into buffer to a final concentration of 2.5% HFIP and approximately 5 μM amylin to initiate amylin fibril formation. Spectra were collected at 1 nm intervals with a sample period of 25 μs and adaptive sampling of ±0.01 mdeg. Measurements were recorded immediately following addition of the human amylin stock solution to phosphate buffer in the presence or absence of Congo red or amaranth.
Human amylin (100 μg) was purified on a C18 spin column to give a stock solution in 100% HFIP as described in the methods. A spectrum of this stock solution was collected at 1 nm intervals in a 0.1 cm path length quartz cell (FIG. 9B). The stock solution of monomeric amylin in 100% HFIP was diluted to 2.5% HFIP in 100 mM potassium chloride/50 mM potassium phosphate buffer (pH 7.4). Human amylin concentration was approximately 5 μM. A spectrum was collected at 1 nm intervals in a 0.5 cm path length quartz cell in the absence (FIG. 9C) or presence of 20-fold molar excess of Congo red over human amylin (FIG. 9D). The stock solution of monomeric amylin in 100% HFIP was diluted to 4% HFIP in 100 mM potassium chloride/50 mM potassium phosphate buffer (pH 7.4) containing decreasing concentrations of Congo red as indicated in the Figure. Human amylin concentration was approximately 4 μM. Spectra were collected at 1 nm intervals in a 0.1 cm path length quartz cell (FIG. 9E). The stock solution of monomeric amylin in 100% HFIP was diluted to 4% HFIP in 100 mM potassium chloride/50 mM potassium phosphate buffer (pH 7.4) containing 200 μM Amaranth. Human amylin concentration was approximately 4 μM. Spectra were collected at 1 nm intervals in a 0.1 cm path length quartz cell (FIG. 9F).
A general note: CD spectra are sensitive to the conformation of chiral molecules.

Turning to Congo red, the “conformation of human amylin (circular dichroism)” value is given as “β-sheet” (0.8 μM Congo red after 1 hr), “random coil” (0.8 μM Congo red), “α-helix” (4 μM Congo red) and “α-helix” (200 μM Congo red). Also, for the setting “20-fold molar excess of Congo red, approximately 5 μM human amylin, 2.5% HFIP, pH 7.4 (FIG. 9D)”, the “effect on β-sheet conformer formation of human amylin (circular dichroism)” value is “prevents formation of β-sheet conformers”. Further, the “time amylin remains stable in α-helical structure” value (excess of Congo red) is on record as “at least 24 hr”.

The values are drawn from US20030186946A1, “Suppression of cytotoxic protein conformers” (priority 2002, published 2003).
